Test results published in patent publication US10757937B2, “Sulfonamides that activate ABA receptors” (The Regents of the University of California, priority 2014, dated 2020).

How the values were obtained:
Test in all cases: receptor-mediated PP2C (HAB1) inhibition in vitro assay
Type in all cases: biochemical
PYL4 = molecular target: T1, PYL4 (Arabidopsis thaliana, UniProt O80920); conditions: for remaining activity at 50 µM: 50 uM of the test compound; for IC50: Table XII-B, calculated from dose curves, read-out: PP2C Activity (IC50 in uM) PYL4
T1 construct: 6X-His; made in house; host or cells: E. coli BL21[DE3]pLysS
T1 sequence (O80920 1-207): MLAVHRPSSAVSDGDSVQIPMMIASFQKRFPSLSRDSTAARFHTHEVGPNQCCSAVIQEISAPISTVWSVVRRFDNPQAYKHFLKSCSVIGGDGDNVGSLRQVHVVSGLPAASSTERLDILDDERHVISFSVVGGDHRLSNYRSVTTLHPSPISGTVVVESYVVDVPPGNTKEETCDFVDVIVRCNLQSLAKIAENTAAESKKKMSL
T1 sequence (Q9CAJ0 23-511 partner): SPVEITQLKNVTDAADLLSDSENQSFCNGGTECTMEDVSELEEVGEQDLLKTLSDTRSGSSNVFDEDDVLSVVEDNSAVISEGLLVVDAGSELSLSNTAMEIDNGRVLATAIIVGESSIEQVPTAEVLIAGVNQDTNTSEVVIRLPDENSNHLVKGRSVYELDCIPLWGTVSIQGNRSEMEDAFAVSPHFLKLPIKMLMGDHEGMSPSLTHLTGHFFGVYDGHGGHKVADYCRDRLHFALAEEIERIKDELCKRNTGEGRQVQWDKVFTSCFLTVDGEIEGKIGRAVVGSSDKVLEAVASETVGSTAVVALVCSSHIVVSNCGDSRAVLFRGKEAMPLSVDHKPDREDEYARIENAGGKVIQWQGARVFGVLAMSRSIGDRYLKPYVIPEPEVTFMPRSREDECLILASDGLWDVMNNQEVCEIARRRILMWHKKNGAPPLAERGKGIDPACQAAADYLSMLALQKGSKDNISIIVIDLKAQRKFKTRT
Procedure, shortened: (§1)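 Fluorogenic readout: 4-methylumbelliferyl-phosphate hydrolysis by 50 nM GST-HAB1 plus 2:1 His-receptor; Tris-OAc pH 7.9, NaCl, 1 mM MnCl2, β-ME. Compounds at 25 μM or 50 uM single dose; IC50 from dose curves for selected compounds.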

PYL9 = molecular target: T2, PYL9 (Arabidopsis thaliana, UniProt Q84MC7); conditions: for remaining activity at 50 µM: 50 uM of the test compound; for IC50: Table XII-B, calculated from dose curves, read-out: PP2C Activity (IC50 in uM) PYL9
T2 construct: 6X-His; made in house; host or cells: E. coli BL21[DE3]pLysS
T2 sequence (Q84MC7 1-187): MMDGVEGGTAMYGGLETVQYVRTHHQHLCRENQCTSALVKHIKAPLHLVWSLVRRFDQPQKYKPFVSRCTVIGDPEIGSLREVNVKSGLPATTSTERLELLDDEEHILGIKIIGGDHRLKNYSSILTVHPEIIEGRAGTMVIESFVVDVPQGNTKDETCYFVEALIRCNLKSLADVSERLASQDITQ
T2 sequence (Q9CAJ0 23-511 partner): T1 sequence (Q9CAJ0 23-511 partner)
Procedure, shortened: as §1

PYL6 = molecular target: T3, PYL6 (Arabidopsis thaliana, UniProt Q8S8E3); conditions: for remaining activity at 50 µM: 50 uM of the test compound; for IC50: Table XII-B, calculated from dose curves, read-out: PP2C Activity (IC50 in uM) PYL6
T3 construct: 6X-His; made in house; host or cells: E. coli BL21[DE3]pLysS
T3 sequence (Q8S8E3 1-215): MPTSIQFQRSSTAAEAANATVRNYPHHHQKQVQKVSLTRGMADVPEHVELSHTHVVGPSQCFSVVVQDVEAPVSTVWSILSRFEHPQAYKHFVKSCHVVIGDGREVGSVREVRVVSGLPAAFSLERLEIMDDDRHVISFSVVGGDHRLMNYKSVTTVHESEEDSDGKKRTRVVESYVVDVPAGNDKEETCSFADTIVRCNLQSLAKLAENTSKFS
T3 sequence (Q9CAJ0 23-511 partner): T1 sequence (Q9CAJ0 23-511 partner)
Procedure, shortened: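 Compounds, tested at 25 μM or 50 uM with ABA at 10 uM, were incubated with recombinant receptor and 50 nM GST-HAB1 (2:1 ratio) in MnCl2-containing Tris-OAc buffer, pH 7.9. Phosphatase activity was followed by 4-methylumbelliferyl-phosphate fluorescence.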

PYL5 = molecular target: T4, PYL5 (Arabidopsis thaliana, UniProt Q9FLB1); conditions: for remaining activity at 50 µM: 50 uM of the test compound; for IC50: Table XII-B, calculated from dose curves, read-out: PP2C Activity (IC50 in uM) PYL5
T4 construct: 6X-His; made in house; host or cells: E. coli BL21[DE3]pLysS
T4 sequence (Q9FLB1 1-203): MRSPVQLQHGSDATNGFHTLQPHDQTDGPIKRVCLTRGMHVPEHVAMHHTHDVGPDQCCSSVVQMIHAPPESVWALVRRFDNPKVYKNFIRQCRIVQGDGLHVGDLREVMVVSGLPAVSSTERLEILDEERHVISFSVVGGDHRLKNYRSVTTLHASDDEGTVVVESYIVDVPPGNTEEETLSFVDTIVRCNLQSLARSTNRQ
T4 sequence (Q9CAJ0 23-511 partner): T1 sequence (Q9CAJ0 23-511 partner)
Procedure, shortened: as §1

PYL8 = molecular target: T5, PYL8 (Arabidopsis thaliana, UniProt Q9FGM1); conditions: for remaining activity at 50 µM: 50 uM of the test compound; for IC50: Table XII-B, calculated from dose curves, read-out: PP2C Activity (IC50 in uM) PYL8
T5 construct: 6X-His; made in house; host or cells: E. coli BL21[DE3]pLysS
T5 sequence (Q9FGM1 1-188): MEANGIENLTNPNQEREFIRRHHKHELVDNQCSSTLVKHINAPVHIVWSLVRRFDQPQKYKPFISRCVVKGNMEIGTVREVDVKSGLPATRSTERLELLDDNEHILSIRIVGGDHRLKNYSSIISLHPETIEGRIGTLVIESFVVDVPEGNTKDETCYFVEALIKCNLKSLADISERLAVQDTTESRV
T5 sequence (Q9CAJ0 23-511 partner): T1 sequence (Q9CAJ0 23-511 partner)
Procedure, shortened: as §1

PYL11 = molecular target: T6, PYL11 (Arabidopsis thaliana, UniProt Q9FJ50); conditions: for remaining activity at 50 µM: 50 uM of the test compound; for IC50: Table XII-B, calculated from dose curves, read-out: PP2C Activity (IC50 in uM) PYL11
T6 construct: made in house; host or cells: E. coli BL21[DE3]pLysS
T6 sequence (Q9FJ50 1-161): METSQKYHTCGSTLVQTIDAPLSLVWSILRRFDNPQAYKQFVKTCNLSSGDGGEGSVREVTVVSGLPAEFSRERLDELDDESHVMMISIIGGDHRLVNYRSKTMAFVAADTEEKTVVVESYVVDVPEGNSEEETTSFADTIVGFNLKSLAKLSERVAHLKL
T6 sequence (Q9CAJ0 23-511 partner): T1 sequence (Q9CAJ0 23-511 partner)
Procedure, shortened: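 His-tagged receptors (MBP fusion for PYL11) at 2:1 ratio to 50 nM GST-HAB1 in 100 mM Tris-OAc pH 7.9, 100 mM NaCl, 1 mM MnCl2; 4-methylumbelliferyl-phosphate fluorogenic substrate. Compounds at 50 uM (ABA 10 uM); IC50 from dose curves for selected compounds.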

Row | SMILES | remaining activity at 50 µM (PYL4) [%] | IC50 (PYL4) [µM] | remaining activity at 50 µM (PYL9) [%] | IC50 (PYL9) [µM] | remaining activity at 50 µM (PYL6) [%] | IC50 (PYL6) [µM] | remaining activity at 50 µM (PYL5) [%] | IC50 (PYL5) [µM] | remaining activity at 50 µM (PYL8) [%] | IC50 (PYL8) [µM] | remaining activity at 50 µM (PYL11) [%] | IC50 (PYL11) [µM]
1 | N#Cc1ccc(CS(=O)(=O)NC(=O)C2(c3cccs3)CCCCC2)cc1 [Compound 75, N-[(4-Cyanophenyl)methanesulfonyl]-1-(thiophen-2-yl)cyclohexane-1-carboxamide] | 98 | > 50 | 6.9 | 0.083 | 57.2 | > 50 | 81.8 | > 50 | 14.9 | 0.134 | 9.8 | 0.39
2 | N#Cc1ccc(CS(=O)(=O)NC(=O)C2(c3ccsc3)CCCCC2)cc1 [Compound 78, N-[(4-Cyanophenyl)methanesulfonyl]-1-(thiophen-3-yl)cyclohexane-1-carboxamide] | 102 | > 50 | 6.1 | 0.038 | 44.9 | 25 | 68.5 | > 50 | 14.3 | 0.073 | 9.9 | 0.19
3 | N#Cc1ccc(CS(=O)(=O)NC(=O)C2(c3ccsc3)CCCCC2)cc1Br [Compound 106, N-[(4-Cyano-3-bromophenyl)methanesulfonyl]-1-(thiophen-3-yl)cyclohexane-1-carboxamide] | 89.2 | > 50 | 5.4 | 0.014 | 17.6 | 7.84 | 11.9 | 7.26 | 13.6 | 0.037 | 7.8 | 0.065
